Measured values as given in patent US20260207720A1, “COMPOSITIONS AND METHODS FOR TREATING FUNGAL INFECTIONS” (MUCPharm Pty Ltd, priority 2022, published 2026).
Values after ≈ are worked out from the molar mass of the structure shown. Like-named read-outs stand apart in the source and are kept apart here.

Assays:
Rhizopus microsporus = test: Chequerboard broth microdilution antifungal susceptibility testing (MIC); type: cell-based; conditions: for isolates with more than 10× increase: Rhizopus microspores, antifungal with BromAc; for MIC / Observed inhibitory effect: Rhizopus microsporus; for Observed inhibitory effect: antifungal in combination with BromAc (5 mg/ml Acetylcysteine+12.5 μg/ml Bromelain) vs alone
Experimental: (§1) Unless otherwise described, fungal cultures were grown on potato dextrose agar plates at 35° C. until mature (appearance of conidia) and used to prepare suspensions in sterile water. […] These suspensions were then added in equal volume to solutions containing the candidate species described above and incubated at 35° C. for 24 hr. Plates were then analysed for fungal growth inhibition and MIC values determined. […] [MICA (combined)/MICA]+[MICB (combined)/MICB] MICA (combined) is the MIC of drug A when both drugs (i.e. drug A and drug B) are present and MICA is the MIC of drug A used in isolation. Similarly, MICB (combined) is the MIC of drug B when both drugs are present and MICB is the MIC of drug B used in isolation.

Rhizopus arrhizus = test: as above; type: cell-based; conditions: for isolates with 10× increase: Rhizopus Arrhizus, antifungal with BromAc; for MIC / Observed inhibitory effect: Rhizopus arrhizus; for Observed inhibitory effect: antifungal in combination with BromAc (5 mg/ml Acetylcysteine+12.5 μg/ml Bromelain) vs alone
Experimental: as §1

[1] = Rhizopus microsporus (80-21-006-5340), drug alone, read-out: MIC
[2] = eight R. microsporus strains, read-out: MIC, average over the strains
[3] = isolate R. microsporus 1, BromAc at constant concentration where combined, read-out: MIC
[4] = isolate R. microsporus 2, BromAc at constant concentration where combined, read-out: MIC
[5] = isolate R. microsporus 3, BromAc at constant concentration where combined, read-out: MIC
[6] = isolate R. microsporus 4, BromAc at constant concentration where combined, read-out: MIC
[7] = isolate R. microsporus 5, BromAc at constant concentration where combined, read-out: MIC
[8] = isolate R. microsporus 6, BromAc at constant concentration where combined, read-out: MIC
[9] = isolate R. microsporus 7, BromAc at constant concentration where combined, read-out: MIC
[10] = isolate R. microsporus 8, BromAc at constant concentration where combined, read-out: MIC
[11] = Rhizopus arrhizus (80-21-015-4777), drug alone, read-out: MIC
[12] = eight R. arrhizus strains, read-out: MIC, average over the strains
[13] = isolate R. archizus 1, BromAc at constant concentration where combined, read-out: MIC
[14] = isolate R. archizus 2, BromAc at constant concentration where combined, read-out: MIC
[15] = isolate R. archizus 3, BromAc at constant concentration where combined, read-out: MIC
[16] = isolate R. archizus 8, BromAc at constant concentration where combined, read-out: MIC
[17] = isolate R. arrhizus 4, BromAc at constant concentration where combined, read-out: MIC
[18] = isolate R. arrhizus 5, BromAc at constant concentration where combined, read-out: MIC
[19] = isolate R. arrhizus 6, BromAc at constant concentration where combined, read-out: MIC
[20] = isolate R. arrhizus 7, BromAc at constant concentration where combined, read-out: MIC

| Structure (SMILES) | isolates with more than 10× increase (Rhizopus microsporus) | MIC (Rhizopus microsporus; [1]) | MIC (Rhizopus microsporus; [2]) | MIC (Rhizopus microsporus; [3]) | MIC (Rhizopus microsporus; [4]) | MIC (Rhizopus microsporus; [5]) | MIC (Rhizopus microsporus; [6]) | MIC (Rhizopus microsporus; [7]) | MIC (Rhizopus microsporus; [8]) | MIC (Rhizopus microsporus; [9]) | MIC (Rhizopus microsporus; [10]) | Observed inhibitory effect (Rhizopus microsporus) | MICs, range over the strains (Rhizopus microsporus; eight R. microsporus strains) | isolates with 10× increase (Rhizopus arrhizus) | MIC (Rhizopus arrhizus; [11]) | MIC (Rhizopus arrhizus; [12]) | MIC (Rhizopus arrhizus; [13]) | MIC (Rhizopus arrhizus; [14]) | MIC (Rhizopus arrhizus; [15]) | MIC (Rhizopus arrhizus; [16]) | further results |
| --- | --- | --- | --- | --- | --- | --- | --- | --- | --- | --- | --- | --- | --- | --- | --- | --- | --- | --- | --- | --- | --- |
| C[C@@H]1[C@H](O)[C@@H](C)/C=C/C=C/C=C/C=C/C=C/C=C/C=C/[C@H](O[C@@H]2O[C@H](C)[C@@H](O)[C@H](N)[C@@H]2O)C[C@@H]2O[C@](O)(C[C@@H](O)C[C@@H](O)[C@H](O)CC[C@@H](O)C[C@@H](O)CC(=O)O[C@H]1C)C[C@H](O)[C@H]2C(=O)O [Amphotericin B] | 9 of 10 | 0.5 µg/mL (≈ 0.541 µM) | 0.7 µg/mL (≈ 0.758 µM) | 1 µg/mL | 1 µg/mL | 0.25 µg/mL | 0.5 µg/mL | 0.5 µg/mL | 0.5 µg/mL | 0.5 µg/mL | 0.5 µg/mL | Strong (Strong = 5-10x (or greater) inhibitory effect) | 0.5 to 1 µg/mL | 8 of 8 | 0.5 µg/mL (≈ 0.541 µM) | 0.6 µg/mL (≈ 0.649 µM) | 1 µg/mL | 0.5 µg/mL | 1 µg/mL | 0.5 µg/mL | effect on fungal culture (in words) (Rhizopus microsporus; alone at 0.25 mg/L): not effective; MIC (Rhizopus arrhizus; [17]): 0.5 µg/mL; MIC (Rhizopus arrhizus; [18]): 0.5 µg/mL; MIC (Rhizopus arrhizus; [19]): 1 µg/mL; MIC (Rhizopus arrhizus; [20]): 0.5 µg/mL; Observed inhibitory effect (Rhizopus arrhizus): Strong (Strong = 5-10x (or greater) inhibitory effect); effect on fungal culture (in words) (Rhizopus arrhizus; alone at 0.25 mg/L): not effective; Amphotericin concentration at which complete inhibition was seen (Rhizopus arrhizus; combined with 25 μg/mL of bromelain): 0.3 mg/L; MICs, range over the strains (Rhizopus arrhizus; eight R. arrhizus strains): 0.25 to 1 µg/mL |
| CC[C@@H]([C@H](C)O)n1ncn(-c2ccc(N3CCN(c4ccc(OC[C@@H]5CO[C@@](Cn6cncn6)(c6ccc(F)cc6F)C5)cc4)CC3)cc2)c1=O [Posaconazole] | 9 of 10 | 1 µg/mL (≈ 1.43 µM) | 0.5 µg/mL (≈ 0.713 µM) | 1 µg/mL | 1 µg/mL | 0.25 µg/mL | 0.25 µg/mL | 0.25 µg/mL | 0.25 µg/mL | 0.25 µg/mL | 0.25 µg/mL | Strong (Strong = 5-10x (or greater) inhibitory effect) | 0.25 to 1 µg/mL | 7 of 8 | 0.5 µg/mL (≈ 0.713 µM) | 0.8 µg/mL (≈ 1.14 µM) | 1 µg/mL | 1 µg/mL | 0.25 µg/mL | 0.25 µg/mL | MIC (Rhizopus arrhizus; [17]): 0.25 µg/mL; MIC (Rhizopus arrhizus; [18]): 0.25 µg/mL; MIC (Rhizopus arrhizus; [19]): 0.5 µg/mL; MIC (Rhizopus arrhizus; [20]): 0.25 µg/mL; Observed inhibitory effect (Rhizopus arrhizus): Strong (Strong = 5-10x (or greater) inhibitory effect); MICs, range over the strains (Rhizopus arrhizus; eight R. arrhizus strains): 0.25 to 1 µg/mL |
